System: marine bacteria (26 strains)
Assay: Disk inhibition assay
Format: cell-based, marine bacteria isolated from Singapore fouling communities
Conditions: for zone of inhibition at 10 µg/disc: 10 μg per disc; for zone of inhibition at 25 µg/disc: 25 μg per disc; for zone of inhibition at 2 µg/disc: 2 μg per disc
Protocol: Preparation of Drugs onto Disks for Assay
The non-antibiotic pharmaceuticals of Table 1 were prepared in the following way. A tablet with a known amount of active ingredient (as stated in the product information) was ground in a mortar and pestle and suspended in sterile deionized water to a concentration of 2 mg ml^−1. These samples were sonicated for at least 1 min. […] The two halves of the capsule were separated and the powder released straight into a bottle and suitable amount of water added to make a concentration of 2 mg ml^−1.
As a comparison to the pharmaceuticals, to determine the susceptibility of the bacterial isolates to conventional antibiotics, commercially available antibiotic discs were used. Antibiotic discs (Oxoid® CT series) containing Ampicillin [Amp] (2 and 10 μg), Erythromycin [Ery] (5 and 15 μg), Streptomycin [Str] (10 and 25 μg) and Tetracycline [Tet] (5 and 30 μg) were placed on lawns of the bacterial strains inoculated as described below.
Sterile swabs dipped into the cultures were used to inoculate Marine Agar plates with a bacterial lawn by smearing the culture over the surface. After inoculating the plates, discs with antibiotics, pharmaceuticals or control blanks were placed on each plate. Each concentration of antibiotic or pharmaceutical was tested with three replicates on three separate occasions. After the disks were placed on the agar surface, plates were incubated overnight in the dark at 30° C. After incubation, plates were examined for zones of inhibition or clearing around control and treated disks. The diameter of any zone of clearing or inhibition was measured using Vernier calipers.
The assay was repeated three times with three replicates for each concentration used, each time.

Q: For `[H]/N=C(/N)N[C@H]1[C@H](O)[C@@H](O)[C@H](O[C@@H]2O[C@@H](C)[C@](O)(C=O)[C@H]2O[C@@H]2O[C@@H](CO)[C@H](O)[C@@H](O)[C@@H]2NC)[C@@H](N/C(N)=N\[H])[C@@H]1O` [Str, streptomycin], which zone of inhibition at 10 µg/disc (strain 1 (Rhodovulum)) is on record?
A: 10 to 19 mm

Q: And the zone of inhibition at 25 µg/disc (strain 1 (Rhodovulum))?
A: 20 to 29 mm

Q: And the zone of inhibition at 10 µg/disc (strain 2 (Erythrobacter))?
A: < 6 mm

Q: What about the zone of inhibition at 25 µg/disc (strain 2 (Erythrobacter)) of the same compound?
A: < 6 mm

Q: What about the zone of inhibition at 10 µg/disc (strain 3 (Erythrobacter)) of the same compound?
A: < 6 mm

Q: What about the zone of inhibition at 25 µg/disc (strain 3 (Erythrobacter)) of the same compound?
A: < 6 mm

Q: And the zone of inhibition at 10 µg/disc (strain 4 (Bacillus))?
A: 10 to 19 mm

Q: What about the zone of inhibition at 25 µg/disc (strain 4 (Bacillus)) of the same compound?
A: 10 to 19 mm

Q: And the zone of inhibition at 10 µg/disc (strain 6 (Vibrio))?
A: < 6 mm

Q: What about the zone of inhibition at 25 µg/disc (strain 6 (Vibrio)) of the same compound?
A: 10 to 19 mm

Q: And the zone of inhibition at 10 µg/disc (strain 7 (Vibrio))?
A: 10 to 19 mm

Q: And the zone of inhibition at 25 µg/disc (strain 7 (Vibrio))?
A: 10 to 19 mm

Q: And the zone of inhibition at 10 µg/disc (strain 8 (Bacillus))?
A: 10 to 19 mm

Q: What about the zone of inhibition at 25 µg/disc (strain 8 (Bacillus)) of the same compound?
A: 10 to 19 mm

Q: And the zone of inhibition at 10 µg/disc (strain 9 (Bacillus))?
A: 10 to 19 mm

Q: What about the zone of inhibition at 25 µg/disc (strain 9 (Bacillus)) of the same compound?
A: 10 to 19 mm

Q: And the zone of inhibition at 10 µg/disc (strain 10 (Halobacillus))?
A: 10 to 19 mm

Q: And the zone of inhibition at 25 µg/disc (strain 10 (Halobacillus))?
A: 10 to 19 mm

Q: And the zone of inhibition at 10 µg/disc (strain 11 (Pseudomonas))?
A: 10 to 19 mm

Q: And the zone of inhibition at 25 µg/disc (strain 11 (Pseudomonas))?
A: 20 to 29 mm

Q: And the zone of inhibition at 10 µg/disc (strain 12 (Gordonia))?
A: < 6 mm

Q: And the zone of inhibition at 25 µg/disc (strain 12 (Gordonia))?
A: 10 to 19 mm

Q: What about the zone of inhibition at 10 µg/disc (strain 13 (Bacillus)) of the same compound?
A: 10 to 19 mm

Q: And the zone of inhibition at 25 µg/disc (strain 13 (Bacillus))?
A: 10 to 19 mm

Q: And the zone of inhibition at 10 µg/disc (strain 14 (Vibrio))?
A: < 6 mm

Q: What about the zone of inhibition at 25 µg/disc (strain 14 (Vibrio)) of the same compound?
A: 6 to 9 mm

Q: And the zone of inhibition at 10 µg/disc (strain 16 (Pseudoalteromonas))?
A: 6 to 9 mm

Q: What about the zone of inhibition at 25 µg/disc (strain 16 (Pseudoalteromonas)) of the same compound?
A: 10 to 19 mm

Q: And the zone of inhibition at 10 µg/disc (strain 17 (Gordonia))?
A: 10 to 19 mm

Q: What about the zone of inhibition at 25 µg/disc (strain 17 (Gordonia)) of the same compound?
A: 10 to 19 mm

Q: What about the zone of inhibition at 10 µg/disc (strain 18 (Microbacterium)) of the same compound?
A: 10 to 19 mm

Q: What about the zone of inhibition at 25 µg/disc (strain 18 (Microbacterium)) of the same compound?
A: 10 to 19 mm

Q: And the zone of inhibition at 10 µg/disc (strain 19 (Erythrobacter))?
A: < 6 mm

Q: And the zone of inhibition at 25 µg/disc (strain 19 (Erythrobacter))?
A: < 6 mm

Q: What about the zone of inhibition at 10 µg/disc (strain 20) of the same compound?
A: < 6 mm

Q: What about the zone of inhibition at 25 µg/disc (strain 20) of the same compound?
A: < 6 mm

Q: What about the zone of inhibition at 10 µg/disc (strain 21) of the same compound?
A: 10 to 19 mm

Q: And the zone of inhibition at 25 µg/disc (strain 21)?
A: 10 to 19 mm

Q: And the zone of inhibition at 10 µg/disc (strain 22)?
A: 6 to 9 mm

Q: What about the zone of inhibition at 25 µg/disc (strain 22) of the same compound?
A: 20 to 29 mm

Q: And the zone of inhibition at 10 µg/disc (strain 24)?
A: < 6 mm

Q: What about the zone of inhibition at 25 µg/disc (strain 24) of the same compound?
A: 20 to 29 mm

Q: And the zone of inhibition at 10 µg/disc (strain 26)?
A: < 6 mm

Q: What about the zone of inhibition at 25 µg/disc (strain 26) of the same compound?
A: 20 to 29 mm

Q: And the zone of inhibition at 10 µg/disc (strain 27)?
A: < 6 mm

Q: What about the zone of inhibition at 25 µg/disc (strain 27) of the same compound?
A: < 6 mm

Q: What about the zone of inhibition at 10 µg/disc (strain 28) of the same compound?
A: 10 to 19 mm

Q: What about the zone of inhibition at 25 µg/disc (strain 28) of the same compound?
A: 10 to 19 mm

Q: What about the zone of inhibition at 10 µg/disc (strain 29) of the same compound?
A: 10 to 19 mm

Q: What about the zone of inhibition at 25 µg/disc (strain 29) of the same compound?
A: 10 to 19 mm

Q: What about the zone of inhibition at 10 µg/disc (strain 30) of the same compound?
A: 10 to 19 mm

Q: What about the zone of inhibition at 25 µg/disc (strain 30) of the same compound?
A: 10 to 19 mm

Q: For `CC1(C)S[C@@H]2[C@H](NC(=O)[C@H](N)c3ccccc3)C(=O)N2[C@H]1C(=O)O` [Amp, ampicillin], which zone of inhibition at 2 µg/disc (strain 1 (Rhodovulum)) is on record?
A: 10 to 19 mm

Q: What about the zone of inhibition at 10 µg/disc (strain 1 (Rhodovulum)) of the same compound?
A: 20 to 29 mm

Q: And the zone of inhibition at 2 µg/disc (strain 2 (Erythrobacter))?
A: < 6 mm

Q: And the zone of inhibition at 10 µg/disc (strain 2 (Erythrobacter))?
A: 10 to 19 mm

Q: What about the zone of inhibition at 2 µg/disc (strain 3 (Erythrobacter)) of the same compound?
A: < 6 mm

Q: And the zone of inhibition at 10 µg/disc (strain 3 (Erythrobacter))?
A: < 6 mm

Q: And the zone of inhibition at 2 µg/disc (strain 4 (Bacillus))?
A: > 40 mm

Q: And the zone of inhibition at 10 µg/disc (strain 4 (Bacillus))?
A: > 40 mm

Q: And the zone of inhibition at 2 µg/disc (strain 6 (Vibrio))?
A: < 6 mm

Q: What about the zone of inhibition at 10 µg/disc (strain 6 (Vibrio)) of the same compound?
A: < 6 mm

Q: What about the zone of inhibition at 2 µg/disc (strain 7 (Vibrio)) of the same compound?
A: 6 to 9 mm

Q: What about the zone of inhibition at 10 µg/disc (strain 7 (Vibrio)) of the same compound?
A: 10 to 19 mm

Q: What about the zone of inhibition at 2 µg/disc (strain 8 (Bacillus)) of the same compound?
A: 20 to 29 mm

Q: What about the zone of inhibition at 10 µg/disc (strain 8 (Bacillus)) of the same compound?
A: 30 to 39 mm

Q: And the zone of inhibition at 2 µg/disc (strain 9 (Bacillus))?
A: 10 to 19 mm

Q: And the zone of inhibition at 10 µg/disc (strain 9 (Bacillus))?
A: 30 to 39 mm

Q: What about the zone of inhibition at 2 µg/disc (strain 10 (Halobacillus)) of the same compound?
A: 30 to 39 mm

Q: And the zone of inhibition at 10 µg/disc (strain 10 (Halobacillus))?
A: > 40 mm

Q: And the zone of inhibition at 2 µg/disc (strain 11 (Pseudomonas))?
A: 20 to 29 mm

Q: And the zone of inhibition at 10 µg/disc (strain 11 (Pseudomonas))?
A: 30 to 39 mm

Q: What about the zone of inhibition at 2 µg/disc (strain 12 (Gordonia)) of the same compound?
A: < 6 mm

Q: And the zone of inhibition at 10 µg/disc (strain 12 (Gordonia))?
A: < 6 mm

Q: And the zone of inhibition at 2 µg/disc (strain 13 (Bacillus))?
A: 10 to 19 mm

Q: What about the zone of inhibition at 10 µg/disc (strain 13 (Bacillus)) of the same compound?
A: 10 to 19 mm

Q: What about the zone of inhibition at 2 µg/disc (strain 14 (Vibrio)) of the same compound?
A: 10 to 19 mm

Q: And the zone of inhibition at 10 µg/disc (strain 14 (Vibrio))?
A: 20 to 29 mm

Q: And the zone of inhibition at 2 µg/disc (strain 16 (Pseudoalteromonas))?
A: 6 to 9 mm

Q: What about the zone of inhibition at 10 µg/disc (strain 16 (Pseudoalteromonas)) of the same compound?
A: 10 to 19 mm

Q: And the zone of inhibition at 2 µg/disc (strain 17 (Gordonia))?
A: < 6 mm

Q: And the zone of inhibition at 10 µg/disc (strain 17 (Gordonia))?
A: < 6 mm

Q: What about the zone of inhibition at 2 µg/disc (strain 18 (Microbacterium)) of the same compound?
A: 20 to 29 mm

Q: And the zone of inhibition at 10 µg/disc (strain 18 (Microbacterium))?
A: 20 to 29 mm

Q: What about the zone of inhibition at 2 µg/disc (strain 19 (Erythrobacter)) of the same compound?
A: 20 to 29 mm

Q: What about the zone of inhibition at 10 µg/disc (strain 19 (Erythrobacter)) of the same compound?
A: 20 to 29 mm

Q: And the zone of inhibition at 2 µg/disc (strain 20)?
A: < 6 mm

Q: And the zone of inhibition at 10 µg/disc (strain 20)?
A: 20 to 29 mm

Q: What about the zone of inhibition at 2 µg/disc (strain 21) of the same compound?
A: < 6 mm

Q: What about the zone of inhibition at 10 µg/disc (strain 21) of the same compound?
A: < 6 mm

Q: What about the zone of inhibition at 2 µg/disc (strain 22) of the same compound?
A: 10 to 19 mm

Q: What about the zone of inhibition at 10 µg/disc (strain 22) of the same compound?
A: 10 to 19 mm

Q: And the zone of inhibition at 2 µg/disc (strain 24)?
A: 30 to 39 mm

Q: What about the zone of inhibition at 10 µg/disc (strain 24) of the same compound?
A: > 40 mm

Q: What about the zone of inhibition at 2 µg/disc (strain 26) of the same compound?
A: 10 to 19 mm

Q: What about the zone of inhibition at 10 µg/disc (strain 26) of the same compound?
A: 10 to 19 mm

Q: And the zone of inhibition at 2 µg/disc (strain 27)?
A: 20 to 29 mm

Q: And the zone of inhibition at 10 µg/disc (strain 27)?
A: 30 to 39 mm

Q: What about the zone of inhibition at 2 µg/disc (strain 28) of the same compound?
A: 6 to 9 mm

Q: What about the zone of inhibition at 10 µg/disc (strain 28) of the same compound?
A: 10 to 19 mm

Q: What about the zone of inhibition at 2 µg/disc (strain 29) of the same compound?
A: 30 to 39 mm

Q: What about the zone of inhibition at 10 µg/disc (strain 29) of the same compound?
A: 30 to 39 mm

Q: What about the zone of inhibition at 2 µg/disc (strain 30) of the same compound?
A: 30 to 39 mm

Q: What about the zone of inhibition at 10 µg/disc (strain 30) of the same compound?
A: 20 to 29 mm

Reference: patent publication US20060110456A1, “Method for biocidal and/or biostatic treatment and compositions therefor” (NATIONAL UNIVERSITY OF SINGAPORE, priority 2004, published 2006)
